What all share (assay type): biochemical
One assay concerns the target PI3K (p110γ) (Homo sapiens, UniProt P48736). As to the kind of experiment: PI3Kγ assay (ADP-Glo Kinase Assay). As to conditions: recombinant enzyme; IC50 (nM) or max inhibition (%) at 0.5 μM.
A further assay addresses PI3K (p110α/p85α) (Homo sapiens, UniProt P42336). As to the kind of experiment: PI3Kα assay (ADP-Glo Kinase Assay). As to conditions: recombinant enzyme; IC50 (nM) or max inhibition (%) at 0.5 μM.
The next assay addresses PI3K (p110β/p85α) (Homo sapiens, UniProt P42338). As to the kind of experiment: PI3Kβ assay (ADP-Glo Kinase Assay). The following applies: read-out: Enzyme activity IC50 PI3Kβ.
A further assay has as its target PI3K (p110δ/p85α) (Homo sapiens, UniProt O00329). As to the kind of experiment: PI3Kδ assay (ADP-Glo Kinase Assay). The following applies: recombinant enzyme; IC50 (nM) or max inhibition (%) at 0.5 μM. In outline: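 Recombinant p110δ/p85α with lipid substrate and serially diluted compound, 0.5 hr RT preincubation; ATP-started reaction ran 1 hr at RT. ADP formed read by ADP-Glo luminescence; IC50 from four-parameter logistic fit of residual activity.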

Each structure is given as a SMILES string.

PI3K (p110δ/p85α), sequence (O00329 whole entry): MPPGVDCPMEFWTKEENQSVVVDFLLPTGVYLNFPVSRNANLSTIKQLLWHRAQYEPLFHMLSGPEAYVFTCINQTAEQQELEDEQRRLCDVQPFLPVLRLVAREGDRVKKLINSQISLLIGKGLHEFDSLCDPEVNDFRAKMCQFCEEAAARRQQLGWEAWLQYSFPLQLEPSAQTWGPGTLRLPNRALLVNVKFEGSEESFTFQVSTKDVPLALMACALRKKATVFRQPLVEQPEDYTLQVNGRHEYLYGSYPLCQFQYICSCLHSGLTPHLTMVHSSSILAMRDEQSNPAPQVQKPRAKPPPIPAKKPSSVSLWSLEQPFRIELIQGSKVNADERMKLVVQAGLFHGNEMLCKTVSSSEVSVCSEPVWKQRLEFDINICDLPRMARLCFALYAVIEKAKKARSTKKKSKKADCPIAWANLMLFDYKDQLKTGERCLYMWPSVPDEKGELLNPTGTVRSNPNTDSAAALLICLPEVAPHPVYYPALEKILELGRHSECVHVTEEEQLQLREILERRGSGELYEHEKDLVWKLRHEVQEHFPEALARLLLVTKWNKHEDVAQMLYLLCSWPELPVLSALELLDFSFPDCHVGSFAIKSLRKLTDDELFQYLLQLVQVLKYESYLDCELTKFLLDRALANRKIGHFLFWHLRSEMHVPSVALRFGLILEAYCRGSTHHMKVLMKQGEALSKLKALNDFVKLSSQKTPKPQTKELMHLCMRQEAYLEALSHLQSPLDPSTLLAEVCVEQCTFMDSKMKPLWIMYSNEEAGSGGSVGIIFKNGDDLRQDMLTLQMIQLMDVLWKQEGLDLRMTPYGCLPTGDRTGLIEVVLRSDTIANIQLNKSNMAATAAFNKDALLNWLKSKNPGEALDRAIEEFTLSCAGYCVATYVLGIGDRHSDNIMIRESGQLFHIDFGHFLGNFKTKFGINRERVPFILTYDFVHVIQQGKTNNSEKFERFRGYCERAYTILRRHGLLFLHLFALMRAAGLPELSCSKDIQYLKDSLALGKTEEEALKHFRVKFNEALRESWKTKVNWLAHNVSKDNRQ
PI3K (p110δ/p85α), sequence (P27986 whole entry partner): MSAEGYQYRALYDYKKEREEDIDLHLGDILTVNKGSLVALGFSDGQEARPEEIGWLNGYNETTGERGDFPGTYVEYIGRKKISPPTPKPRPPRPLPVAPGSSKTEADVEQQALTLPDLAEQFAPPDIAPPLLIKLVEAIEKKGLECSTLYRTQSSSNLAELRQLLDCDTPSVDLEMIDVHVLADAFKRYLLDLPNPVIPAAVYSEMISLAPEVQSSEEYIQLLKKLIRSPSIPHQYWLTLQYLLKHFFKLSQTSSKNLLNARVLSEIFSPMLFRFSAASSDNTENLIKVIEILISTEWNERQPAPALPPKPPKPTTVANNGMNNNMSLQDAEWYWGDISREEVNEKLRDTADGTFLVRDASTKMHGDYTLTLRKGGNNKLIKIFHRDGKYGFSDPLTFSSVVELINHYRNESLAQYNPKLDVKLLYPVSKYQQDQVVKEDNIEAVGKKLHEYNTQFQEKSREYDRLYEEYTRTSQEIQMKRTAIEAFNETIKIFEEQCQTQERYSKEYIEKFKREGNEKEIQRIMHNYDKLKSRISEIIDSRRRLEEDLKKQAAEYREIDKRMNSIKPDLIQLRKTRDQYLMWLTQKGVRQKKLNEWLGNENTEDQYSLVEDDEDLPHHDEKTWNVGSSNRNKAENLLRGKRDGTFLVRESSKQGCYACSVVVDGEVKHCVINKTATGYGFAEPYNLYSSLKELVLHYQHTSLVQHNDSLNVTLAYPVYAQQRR
PI3K (p110β/p85α), sequence (P42338 whole entry): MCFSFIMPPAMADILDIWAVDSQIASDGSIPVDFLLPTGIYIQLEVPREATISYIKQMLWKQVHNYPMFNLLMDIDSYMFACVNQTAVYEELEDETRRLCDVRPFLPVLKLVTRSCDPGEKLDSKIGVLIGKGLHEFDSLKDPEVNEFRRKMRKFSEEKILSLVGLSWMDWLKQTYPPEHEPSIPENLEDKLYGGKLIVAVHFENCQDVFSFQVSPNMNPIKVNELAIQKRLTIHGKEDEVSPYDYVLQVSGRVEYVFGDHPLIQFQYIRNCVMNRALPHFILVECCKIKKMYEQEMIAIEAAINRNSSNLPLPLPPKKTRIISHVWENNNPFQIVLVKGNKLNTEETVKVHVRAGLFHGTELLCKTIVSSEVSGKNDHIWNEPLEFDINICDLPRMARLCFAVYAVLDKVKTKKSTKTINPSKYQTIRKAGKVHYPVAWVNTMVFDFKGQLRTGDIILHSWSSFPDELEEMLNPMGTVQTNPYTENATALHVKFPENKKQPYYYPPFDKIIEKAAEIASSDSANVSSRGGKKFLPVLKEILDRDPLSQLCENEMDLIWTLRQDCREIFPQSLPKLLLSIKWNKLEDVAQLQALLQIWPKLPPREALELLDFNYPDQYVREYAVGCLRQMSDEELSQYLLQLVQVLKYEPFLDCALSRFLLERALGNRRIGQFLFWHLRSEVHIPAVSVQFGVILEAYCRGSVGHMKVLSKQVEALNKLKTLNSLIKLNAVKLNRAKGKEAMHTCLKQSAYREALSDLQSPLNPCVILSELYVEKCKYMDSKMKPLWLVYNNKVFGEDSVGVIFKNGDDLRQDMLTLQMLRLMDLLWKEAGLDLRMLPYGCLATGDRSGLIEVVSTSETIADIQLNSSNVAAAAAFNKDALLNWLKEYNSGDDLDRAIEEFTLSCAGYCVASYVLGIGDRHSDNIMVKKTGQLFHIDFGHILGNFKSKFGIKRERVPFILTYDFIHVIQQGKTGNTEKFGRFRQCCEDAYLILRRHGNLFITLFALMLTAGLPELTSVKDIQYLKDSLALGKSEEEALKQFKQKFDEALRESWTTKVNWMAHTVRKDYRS
PI3K (p110β/p85α), sequence (P27986 whole entry partner): as the sequence (P27986 whole entry partner) above
PI3K (p110γ), sequence (P48736 whole entry): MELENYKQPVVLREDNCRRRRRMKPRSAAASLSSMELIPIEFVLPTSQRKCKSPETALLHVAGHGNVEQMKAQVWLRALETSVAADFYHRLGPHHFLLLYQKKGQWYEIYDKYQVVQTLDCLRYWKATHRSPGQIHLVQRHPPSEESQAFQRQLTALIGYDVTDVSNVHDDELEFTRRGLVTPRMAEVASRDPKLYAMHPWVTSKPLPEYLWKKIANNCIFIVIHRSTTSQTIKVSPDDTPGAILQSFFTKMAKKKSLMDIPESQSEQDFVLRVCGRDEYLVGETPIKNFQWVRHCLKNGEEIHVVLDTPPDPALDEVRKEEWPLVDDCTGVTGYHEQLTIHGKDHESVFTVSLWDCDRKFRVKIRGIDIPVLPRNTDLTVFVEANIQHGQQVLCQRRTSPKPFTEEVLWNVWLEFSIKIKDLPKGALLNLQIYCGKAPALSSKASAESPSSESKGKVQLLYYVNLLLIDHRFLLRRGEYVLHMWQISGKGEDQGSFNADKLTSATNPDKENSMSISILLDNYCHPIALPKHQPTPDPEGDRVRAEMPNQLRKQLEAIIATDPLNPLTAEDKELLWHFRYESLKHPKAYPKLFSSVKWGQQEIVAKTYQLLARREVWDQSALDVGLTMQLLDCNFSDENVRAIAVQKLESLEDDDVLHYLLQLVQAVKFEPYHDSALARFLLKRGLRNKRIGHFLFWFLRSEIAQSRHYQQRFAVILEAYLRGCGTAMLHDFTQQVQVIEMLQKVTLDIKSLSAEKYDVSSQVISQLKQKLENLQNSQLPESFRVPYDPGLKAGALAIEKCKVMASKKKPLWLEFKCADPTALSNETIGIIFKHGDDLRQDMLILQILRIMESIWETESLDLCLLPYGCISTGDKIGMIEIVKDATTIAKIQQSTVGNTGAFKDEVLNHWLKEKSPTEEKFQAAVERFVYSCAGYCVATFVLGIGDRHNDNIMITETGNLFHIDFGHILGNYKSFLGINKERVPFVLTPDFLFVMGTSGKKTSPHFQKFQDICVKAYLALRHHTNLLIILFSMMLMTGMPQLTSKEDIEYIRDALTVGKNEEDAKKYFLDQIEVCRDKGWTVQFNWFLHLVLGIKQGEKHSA
PI3K (p110α/p85α), sequence (P42336 whole entry): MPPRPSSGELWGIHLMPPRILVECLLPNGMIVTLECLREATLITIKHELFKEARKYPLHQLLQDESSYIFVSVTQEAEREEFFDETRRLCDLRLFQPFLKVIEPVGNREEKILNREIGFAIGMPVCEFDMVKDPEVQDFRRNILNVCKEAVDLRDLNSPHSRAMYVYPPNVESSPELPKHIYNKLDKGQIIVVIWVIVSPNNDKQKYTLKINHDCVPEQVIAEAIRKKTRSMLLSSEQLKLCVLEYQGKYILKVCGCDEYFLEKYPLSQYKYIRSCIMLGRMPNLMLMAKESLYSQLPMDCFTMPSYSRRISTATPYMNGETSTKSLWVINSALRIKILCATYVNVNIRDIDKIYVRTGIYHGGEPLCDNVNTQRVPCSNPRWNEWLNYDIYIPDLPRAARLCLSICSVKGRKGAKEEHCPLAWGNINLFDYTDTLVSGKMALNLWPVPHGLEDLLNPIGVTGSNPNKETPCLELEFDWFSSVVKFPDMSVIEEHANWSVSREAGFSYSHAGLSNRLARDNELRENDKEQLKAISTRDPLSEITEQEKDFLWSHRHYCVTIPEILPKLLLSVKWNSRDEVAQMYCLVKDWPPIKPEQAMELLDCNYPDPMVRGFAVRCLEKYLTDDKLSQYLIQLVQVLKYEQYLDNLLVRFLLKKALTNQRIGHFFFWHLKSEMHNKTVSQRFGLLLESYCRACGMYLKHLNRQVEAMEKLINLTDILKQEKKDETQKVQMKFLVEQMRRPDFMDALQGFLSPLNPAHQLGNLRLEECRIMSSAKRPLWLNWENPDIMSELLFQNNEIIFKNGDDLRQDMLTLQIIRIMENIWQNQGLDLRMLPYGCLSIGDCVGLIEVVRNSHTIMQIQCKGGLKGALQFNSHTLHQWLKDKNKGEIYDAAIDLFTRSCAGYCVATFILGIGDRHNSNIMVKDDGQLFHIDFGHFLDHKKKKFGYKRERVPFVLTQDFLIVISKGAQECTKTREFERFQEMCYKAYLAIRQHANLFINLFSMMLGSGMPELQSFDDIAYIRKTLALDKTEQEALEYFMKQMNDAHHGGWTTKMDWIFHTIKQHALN
PI3K (p110α/p85α), sequence (P27986 whole entry partner): as the sequence (P27986 whole entry partner) above

`Cc1nc([C@@H](C)c2cc(Cl)c(F)c(C(=O)N[C@@H]3CC[C@@H](O)C3)c2OC(C)C)n2ccnc(N)c12` [Compound 53, 3-((S)-1-(8-amino-1-methylimidazo[1,5-a]pyrazin-3-yl)ethyl)-5-chloro-6-fluoro-N-((1R,3R)-3-hydroxycyclopentyl)-2-isopropoxybenzamide]: the IC50 on PI3K (p110γ) stood at 2400 nM; at PI3K (p110α/p85α), 14000 nM; at PI3K (p110β/p85α) it was 11 µM; on PI3K (p110δ/p85α) it was 0.68 nM.
The corresponding values for `Cc1nc([C@@H](C)c2cc(Cl)c(F)c(C(=O)NCC3(O)COC3)c2OC(C)C)n2ccnc(N)c12` [Compound 55, (S)-3-(1-(8-amino-1-methylimidazo[1,5-a]pyrazin-3-yl)ethyl)-5-chloro-6-fluoro-N-((3-hydroxyoxetan-3-yl)methyl)-2-isopropoxybenzamide] are 2200 nM, 13000 nM, 11 µM and 1.8 nM.
In the same order, the values of `Cc1nc([C@@H](C)c2cc(Cl)c(F)c(C(=O)NC3(CN4CCN(CC5CC5)CC4)CC3)c2OC(C)C)n2ccnc(N)c12` [Compound 56, (S)-3-(1-(8-amino-1-methylimidazo[1,5-a]pyrazin-3-yl)ethyl)-5-chloro-N-(1-((4-(cyclopropylmethyl)piperazin-1-yl)methyl)cyclopropyl)-6-fluoro-2-isopropoxybenzamide] are 4500 nM, 28000 nM, 44 µM and 1.9 nM.
The corresponding values for `Cc1nc([C@@H](C)c2cc(Cl)c(F)c(C(=O)NC[C@H](C)O)c2OC(C)C)n2ccnc(N)c12` [Compound 57, 3-((S)-1-(8-amino-1-methylimidazo[1,5-a]pyrazin-3-yl)ethyl)-5-chloro-6-fluoro-N-((S)-2-hydroxypropyl)-2-isopropoxybenzamide] are 4900 nM, 18000 nM, 12 µM and 1.1 nM.
Turning to `Cc1nc([C@@H](C)c2cc(Cl)c(F)c(C(=O)N[C@@H]3CCC[C@H]3O)c2OC(C)C)n2ccnc(N)c12` [Compound 58, 3-((S)-1-(8-amino-1-methylimidazo[1,5-a]pyrazin-3-yl)ethyl)-5-chloro-6-fluoro-N-((1R,2R)-2-hydroxycyclopentyl)-2-isopropoxybenzamide], the IC50 turned out to be 2800 nM at PI3K (p110γ), 14000 nM at PI3K (p110α/p85α), 16 µM on PI3K (p110β/p85α) and 2.2 nM at PI3K (p110δ/p85α).
In the same order, the values of `Cc1nc([C@@H](C)c2cc(Cl)c(F)c(C(=O)N[C@@H](C)c3ccnc(C(F)(F)F)c3)c2OC(C)C)n2ccnc(N)c12` [Compound 59A, 3-((S)-1-(8-amino-1-methylimidazo[1,5-a]pyrazin-3-yl)ethyl)-5-chloro-6-fluoro-2-isopropoxy-N-((S)-1-(2-(trifluoromethyl)pyridin-4-yl)ethyl)benzamide] are 1200 nM, 8300 nM, 14 µM and 2.1 nM.
In the same order, the values of `Cc1nc([C@@H](C)c2cc(Cl)c(F)c(C(=O)N[C@H](C)c3ccnc(C(F)(F)F)c3)c2OC(C)C)n2ccnc(N)c12` [Compound 59B, 3((S)-1-(8-amino-1-methylimidazo[1,5-a]pyrazin-3-yl)ethyl)-5-chloro-6-fluoro-2-isopropoxy-N-((R)-1-(2-(trifluoromethyl)pyridin-4-yl)ethyl)benzamide] are 2800 nM, 14000 nM, 26 µM and 1.5 nM.
In the same order, the values of `Cc1nc([C@@H](C)c2cc(Cl)c(F)c(C(=O)N[C@H]3C[C@H](O)C3)c2OC(C)C)n2ccnc(N)c12` [Compound 61, 3-((S)-1-(8-amino-1-methylimidazo[1,5-a]pyrazin-3-yl)ethyl)-5-chloro-6-fluoro-N-((trans)-3-hydroxycyclobutyl)-2-isopropoxybenzamide] are 4500 nM, 21000 nM, 12 µM and 1.4 nM.
In the case of `Cc1nc([C@@H](C)c2cc(Cl)c(F)c(C(=O)N[C@H]3CC[C@@H](O)CC3)c2OC(C)C)n2ccnc(N)c12` [Compound 62, 3((S)-1-(8-amino-1-methylimidazo[1,5-a]pyrazin-3-yl)ethyl)-5-chloro-6-fluoro-N-((cis)-4-hydroxycyclohexyl)-2-isopropoxybenzamide], the IC50 amounted to 9000 nM on PI3K (p110γ), 17000 nM on PI3K (p110α/p85α), 29 µM at PI3K (p110β/p85α) and 1.4 nM at PI3K (p110δ/p85α).
In the same order, the values of `Cc1nc([C@@H](C)c2cc(Cl)c(F)c(C(=O)N[C@H]3C[C@@H](O)C3)c2OC(C)C)n2ccnc(N)c12` [Compound 63, 3-((S)-1-(8-amino-1-methylimidazo[1,5-a]pyrazin-3-yl)ethyl)-5-chloro-6-fluoro-N-((cis)-3-hydroxycyclobutyl)-2-isopropoxybenzamide] are 4200 nM, 38000 nM, 7.4 µM and 1.1 nM.
As to `Cc1nc([C@@H](C)c2cc(Cl)c(F)c(C(=O)N3CCC4(CC3)COC4)c2OC(C)C)n2ccnc(N)c12` [Compound 64, (S)-(3-(1-(8-amino-1-methylimidazo[1,5-a]pyrazin-3-yl)ethyl)-5-chloro-6-fluoro-2-isopropoxyphenyl)(2-oxa-7-azaspiro[3.5]nonan-7-yl)methanone], the IC50 at PI3K (p110γ) is 14000 nM; at PI3K (p110α/p85α), more than 50000 nM; at PI3K (p110β/p85α), more than 50 µM; at PI3K (p110δ/p85α), 1.6 nM.
The corresponding values for `Cc1nc([C@@H](C)c2cc(Cl)c(F)c(C(=O)NCC3(O)CC3)c2OC(C)C)n2ccnc(N)c12` [Compound 66, (S)-3(1-(8-amino-1-methylimidazo[1,5-a]pyrazin-3-yl)ethyl)-5-chloro-6-fluoro-N-((1-hydroxycyclopropyl)methyl)-2-isopropoxybenzamide] are 3400 nM, 14000 nM, 12 µM and 2.2 nM.
In the same order, the values of `Cc1nc([C@@H](C)c2cc(Cl)c(F)c(C(=O)N3CC4(CCOC4)C3)c2OC(C)C)n2ccnc(N)c12` [Compound 68, (S)-(3-(1-(8-amino-1-methylimidazo[1,5-a]pyrazin-3-yl)ethyl)-5-chloro-6-fluoro-2-isopropoxyphenyl)(6-oxa-2-azaspiro[3.4]octan-2-yl)methanone] are 4600 nM, 40000 nM, 23 µM and 1.7 nM.
As for `CO[C@@H]1CCCN(C(=O)c2c(F)c(Cl)cc([C@H](C)c3nc(C)c4c(N)nccn34)c2OC(C)C)C1` [Compound 69, (3-((S)-1-(8-amino-1-methylimidazo[1,5-a]pyrazin-3-yl)ethyl)-5-chloro-6-fluoro-2-isopropoxyphenyl)((R)-3-methoxypiperidin-1-yl)methanone], the IC50 at PI3K (p110γ) was 5200 nM; on PI3K (p110α/p85α), more than 50000 nM; at PI3K (p110β/p85α), more than 50 µM; at PI3K (p110δ/p85α) it was 2 nM.
The corresponding values for `CO[C@H]1CCN(C(=O)c2c(F)c(Cl)cc([C@H](C)c3nc(C)c4c(N)nccn34)c2OC(C)C)C1` [Compound 70, (3-((S)-1-(8-amino-1-methylimidazo[1,5-a]pyrazin-3-yl)ethyl)-5-chloro-6-fluoro-2-isopropoxyphenyl)((S)-3-methoxypyrrolidin-1-yl)methanone] are 6700 nM, 41000 nM, more than 50 µM and 1.9 nM.

Values taken from US11905294B2, “Imidazo[1,5-a]pyrazine derivatives as PI3Kδ inhibitors” (BEIGENE, LTD., priority 2017, dated 2024).
